Experimental data from patent US20050227977A1, “Substituted 1,2,5,10-tetrahydropyridazino [4,5-b]quinoline-1,10-dione compounds and methods for the treatment of pain” (AstraZeneca AB, priority 1999, published 2005).
pKi: −log10 of the molar value.

Target: T1, NMDA receptor glycine site (Rattus norvegicus, UniProt P35439)
T1 construct: tissue Analytical Biological Services Inc; host or cells: rat brain membranes (cerebral cortex and hippocampus, male Sprague Dawley rats)
Experiment: Test A: Inhibition of binding of [3H]-MDL105,519
Conditions: inhibition of 1.2 nM [3H]MDL105,519 binding to brain membranes; table does not say rat or human membranes
From the text: Test A: Inhibition of Binding of [^3H]-MDL105,519:
Binding of compounds to the NMDA receptor glycine site may be assessed by measuring the ability of test compounds to inhibit the binding of tritiated MDL105,519 to brain membranes bearing the receptor.
Briefly, fresh brain tissue including cerebral cortex and hippocampus from male Sprague Dawley rats was homogenized in 0.32 M sucrose and centrifuged at low speed to separate cellular membranes from other cellular components. The membranes were then washed 3 times using deionized water, followed by treatment with 0.04% Triton X-100. Finally, membranes were washed six times in 50 mM Tris citrate buffer, pH 7.4, and frozen at −80° C. until use.
[^3H]MDL105,519 (72 Ci/mmol) was purchased from Amersham. Cold MDL105,519 was purchased from Sigma/RBI. […] On the day of the experiment, brain membranes were thawed at room temperature and suspended in 50 mM tris acetate buffer, pH 7.4 (“TAB”). Seventy-five micro grams per milliliter protein (by using the BioRad dye) were used for competition binding. The experiments were carried out using 96-well plates. […] Non specific binding was determined by using 100 μM of unlabeled MDL105,519. […] After incubation, unbound [^3H]MDL105,519 was removed by filtration onto GF/B Unifilter plates using a Packard harvester. Filters were washed four times with ice cold TAB (total of 1.2 mL buffer). The plates were dried overnight at room temperature and bound radioactivity was measured on a Packard TopCount after the addition of 45 μL per well of the MICROSCINT O.
Human Brain Membranes: Human brain membranes were obtained from Analytical Biological Services Inc., and assays were performed as described for rat membranes.
Data analysis: Data was analyzed using a Microsoft Excel spreadsheet and GraphPad Prizm software and potency of compounds is expressed as the Ki (nM).

Compared with Cc1cc(Cn2nc(O)c3[nH]c4cc(Cl)ccc4c(=O)c3c2=O)ccc1OC(=O)N1CCOCC1 [Ex. 12, Morpholine-4-carboxylic acid 4-(7-chloro-4-hydroxy-1,10-dioxo-5,10-dihydro-1H-pyridazino[4,5-b]quinolin-2-ylmethyl)-2-methyl-phenyl ester], COc1ccc(Cn2nc(O)c3[nH]c4cc(Cl)ccc4c(=O)c3c2=O)cc1OC(=O)N1CCOCC1 [Ex. 16, Morpholine-4-carboxylic acid 5-(7-chloro-4-hydroxy-1,10-dioxo-5,10-dihydro-1H-pyridazino[4,5-b]quinolin-2-ylmethyl)-2-methoxy-phenyl ester] is 0.49 log units higher in pKi: 6.57 for the first, 7.06 for the second. The second binds more tightly here.

Compared with Cc1cc(Cn2nc(O)c3[nH]c4cc(Cl)ccc4c(=O)c3c2=O)ccc1OC(=O)N(C)c1ccccc1 [Ex. 13, Methyl-phenyl-carbamic acid 4-(7-chloro-4-hydroxy-1,10-dioxo-5,10-dihydro-1H-pyridazino[4,5-b]quinolin-2-ylmethyl)-2-methyl-phenyl ester], COc1ccc(Cn2nc(O)c3[nH]c4cc(Cl)ccc4c(=O)c3c2=O)cc1OC(=O)N(C)C [Ex. 14, Dimethyl-carbamic acid 5-(7-chloro-4-hydroxy-1,10-dioxo-5,10-dihydro-1H-pyridazino[4,5-b]quinolin-2-ylmethyl)-2-methoxy-phenyl ester] is 0.45 log units lower in pKi: 7.23 for the first, 6.78 for the second.
